What follows are molecules tested against CRBN-DDB1 (Homo sapiens, UniProt Q96SW2) (assay: CRBN Fluorescence Polarization Assay with BODIPY-IMid Tracer). Details: competition with 30 nM BODIPY-IMiD tracer for 500 nM CRBN-DDB1, 3-fold serial dilution.
Type: binding
Design: unit not given here
Experimental: Promega assay was used to compare bifunctional ligands of the present invention to compete with IMiDs tracer binding to CRBN.
25 uM BODIPY-IMiD tracer (aliquots from Promega 160 uM stock solution)
Buffer: 100 mM Tris pH7.5, 150 mM NaCl, no DTT
Plates: PCR plate 96-well, Black 384-well
384-well plate 20 uL total volume
10 uL of CRBN-DDB1, BODIPY-IMiD added to 10 uL of ligand
A full 384-well assay plate was used to test bifunctional compounds with and without protein, Pomalidomide used as a control. Two 96-well PCR plates were prepared as follows: • 1. Plate 1 • a. To wells A1-A11 on a 96-well PCR plate 100 uM bifunctional compound was added to 40 uL total volume • i. 38 uL of buffer was added • ii. 2 uL was added of 2 mM bifunctional or IMiD compound in DMSO or 2 uL of 0.2 mM for CC220 analogs • b. To well A12 Pomalidomide was added as control • i. 38 uL buffer was added • ii. 2 uL of 2 mM Pomalidomide in DMSO was added • 2. Plate 2 • a. To wells A1-A10 on a 96-well PCR plate 100 uM bifunctional compound was added to 40 uL total volume • i. 38 uL of buffer was added • ii. 2 uL of 2 mM bifunctional compound in DMSO was added • b. To well A11 CC220 control was added • i. 38 uL buffer added • ii. 2 uL of 0.2 mM for CC220 was added • c. To well A12 DMSO control was added • i. Added buffer to 38 uL • ii. Added 2 uL of DMSO • 3. Prepared 7 mL of Buffer with 5% DMSO for serial dilution • a. 26.67 uL to rows B-H on 96-well plate • 4. Serial dilutions of samples in row A1 3-fold • a. 13.3 uL of A1 added to 26.67 uL in A2 • 5. Added 10 uL to 384-well plate • a. Added A1 from Plate 1 to wells A1 and A2 on 384-well plate (top half of 384-well plate) • b. Added A1 from Plate 2 to wells I1 and I2 on 384-well plate ([…] of 384-well plate)
A preparation was made of 500 nM CRBN-DDB1, 30 nM IMiD complex. To 4 mL of the prepared 500 nM CRBN-DDB1, 30 nM BODIPY-IMiD was added 47.6 uL of 46 uM CRBN-DDB1, 3.752 mL of Buffer (4 additions of 938 uL), 200 uL of DMSO, and 4.8 uL of 25 uM BODIPY IMiD stock. This incubated at room temperature for 10 minutes and then 10 uL was added to all wells on 384-well plate except wells M23-24, N23-24, O23-24, P23-24. Gain Control samples were then made consisting of 950 uL of Buffer, 50 uL of DMSO, 1.2 uL of 25 uM BODIPY IMiD stock, and 10 uL was added to wells M23-24, N23-24, O23-24, P23-24.

Sequence of CRBN-DDB1 (Q96SW2 whole entry): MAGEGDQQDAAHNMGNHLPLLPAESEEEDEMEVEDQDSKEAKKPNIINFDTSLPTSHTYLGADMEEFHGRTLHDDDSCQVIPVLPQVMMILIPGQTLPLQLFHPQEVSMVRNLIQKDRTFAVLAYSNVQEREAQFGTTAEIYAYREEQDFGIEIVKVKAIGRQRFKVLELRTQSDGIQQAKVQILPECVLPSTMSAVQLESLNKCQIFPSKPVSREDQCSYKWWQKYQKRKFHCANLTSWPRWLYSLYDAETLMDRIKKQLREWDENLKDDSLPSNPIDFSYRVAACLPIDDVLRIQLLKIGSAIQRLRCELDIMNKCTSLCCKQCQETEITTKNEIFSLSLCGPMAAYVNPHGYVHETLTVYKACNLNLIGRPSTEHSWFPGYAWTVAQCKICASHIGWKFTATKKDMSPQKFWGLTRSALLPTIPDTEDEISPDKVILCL
Sequence of CRBN-DDB1 (Q16531 whole entry partner): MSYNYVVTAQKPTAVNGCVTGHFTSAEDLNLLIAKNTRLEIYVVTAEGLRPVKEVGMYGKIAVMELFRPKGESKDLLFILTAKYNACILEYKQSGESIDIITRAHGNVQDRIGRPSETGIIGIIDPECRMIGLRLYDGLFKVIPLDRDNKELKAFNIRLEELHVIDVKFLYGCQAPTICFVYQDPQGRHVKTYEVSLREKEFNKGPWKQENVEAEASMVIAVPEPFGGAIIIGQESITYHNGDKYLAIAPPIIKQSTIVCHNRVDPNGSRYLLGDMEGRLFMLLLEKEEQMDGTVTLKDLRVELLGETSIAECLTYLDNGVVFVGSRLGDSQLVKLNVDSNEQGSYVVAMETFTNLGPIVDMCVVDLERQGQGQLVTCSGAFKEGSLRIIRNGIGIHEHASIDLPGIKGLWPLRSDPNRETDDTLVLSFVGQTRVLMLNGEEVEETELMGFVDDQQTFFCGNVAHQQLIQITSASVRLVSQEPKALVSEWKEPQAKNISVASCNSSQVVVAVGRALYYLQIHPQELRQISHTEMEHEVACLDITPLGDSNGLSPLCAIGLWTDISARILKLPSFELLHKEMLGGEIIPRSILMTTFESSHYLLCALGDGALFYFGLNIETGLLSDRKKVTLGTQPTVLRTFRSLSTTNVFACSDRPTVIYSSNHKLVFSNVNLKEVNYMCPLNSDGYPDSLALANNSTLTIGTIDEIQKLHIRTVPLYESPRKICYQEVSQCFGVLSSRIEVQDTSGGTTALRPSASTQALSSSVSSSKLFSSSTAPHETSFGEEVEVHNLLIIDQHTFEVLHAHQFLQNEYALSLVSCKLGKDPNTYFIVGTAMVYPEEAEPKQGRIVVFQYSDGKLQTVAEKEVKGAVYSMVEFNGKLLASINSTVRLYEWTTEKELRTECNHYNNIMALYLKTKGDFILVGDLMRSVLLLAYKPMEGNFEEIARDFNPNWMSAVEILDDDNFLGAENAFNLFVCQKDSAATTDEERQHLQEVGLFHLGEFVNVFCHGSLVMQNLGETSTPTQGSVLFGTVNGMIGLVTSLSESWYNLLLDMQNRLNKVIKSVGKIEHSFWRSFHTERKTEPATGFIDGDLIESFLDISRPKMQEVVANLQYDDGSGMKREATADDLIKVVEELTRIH

Result	SMILES
0.16	O=C1CC[C@@H](N2Cc3c(OCc4ccc(CN5CCOCC5)cc4)cccc3C2=O)C(=O)N1
0.93	O=C1CCC(N2Cc3c(OCCO)cccc3C2=O)C(=O)N1 (stereo not drawn) [3-(4-(2-hydroxyethoxy)-1-oxoisoindolin-2-yl)piperidine-2,6-dione]
0.16	O=C1CCC(N2Cc3c(OCc4ccc(Cn5ccnc5)cc4)cccc3C2=O)C(=O)N1 (stereo not drawn) [3-(4-((4-((1H-imidazol-1-yl)methyl)benzyl)oxy)-1-oxoisoindolin-2-yl)piperidine-2,6-dione]
0.94	O=C1CCC(N2Cc3c(OCc4cc(CN5CCOCC5)ccn4)cccc3C2=O)C(=O)N1 (stereo not drawn) [3-(4-((4-(morpholinomethyl)pyridin-2-yl)methoxy)-1-oxoisoindolin-2-yl)piperidine-2,6-dione]
1.43	COc1ccc2c(c1)C(=O)N(C1CCC(=O)NC1=O)C2 (stereo not drawn) [3-(6-methoxy-1-oxoisoindolin-2-yl)piperidine-2,6-dione]
0.25	O=C1CC[C@H](N2Cc3c(OCc4ccc(Br)cc4)cccc3C2=O)C(=O)N1 [(S)-3-(4-((4-bromobenzyl)oxy)-1-oxoisoindolin-2-yl)piperidine-2,6-dione]
0.1	O=C1CC[C@H](N2Cc3c(OCc4ccccc4)ccc(Br)c3C2=O)C(=O)N1 [(S)-3-(4-(benzyloxy)-7-bromo-1-oxoisoindolin-2-yl)piperidine-2,6-dione]
0.54	O=C1CC[C@H](N2Cc3cc(OCc4ccccc4)ccc3C2=O)C(=O)N1 [(S)-3-(5-(benzyloxy)-1-oxoisoindolin-2-yl)piperidine-2,6-dione]
1.57	Nc1cccc2c1C(=O)N(C1CCC(=O)NC1=O)C2=O (stereo not drawn) [Pomalidomide, pomalidomide, reference compound]
0.06	COC(=O)C1CCCN(Cc2ccc(COc3cccc4c3CN(C3CCC(=O)NC3=O)C4=O)cc2)C1 (stereo not drawn) [methyl 1-(4-(((2-(2,6-dioxopiperidin-3-yl)-1-oxoisoindolin-4-yl)oxy)methyl)benzyl)piperidine-3-carboxylate]
0.05	COC(=O)C1CCN(Cc2ccc(COc3cccc4c3CN(C3CCC(=O)NC3=O)C4=O)cc2)CC1 (stereo not drawn) [methyl 1-(4-(((2-(2,6-dioxopiperidin-3-yl)-1-oxoisoindolin-4-yl)oxy)methyl)benzyl)piperidine-4-carboxylate]
0.14	COC(=O)C1CCN(Cc2ccc(COc3cccc4c3CN(C3CCC(=O)NC3=O)C4=O)cc2)C1 (stereo not drawn) [methyl 1-(4-(((2-(2,6-dioxopiperidin-3-yl)-1-oxoisoindolin-4-yl)oxy)methyl)benzyl)pyrrolidine-3-carboxylate]

Reference: patent US20230045737A1, “SUBSTITUTED ISOINDOLINONES AS MODULATORS OF CEREBLON-MEDIATED NEO-SUBSTRATE RECRUITMENT” (Vividion Therapeutics, Inc., priority 2018, published 2023)
